# Columns and labels:
# [1] = biological target: JAK1 (recombinant purified GST-tagged catalytic domain) (Homo sapiens (Human), UniProt P23458); assay: Jak Biochemical HTRF Assay (JAK1); settings: [ATP] 31.8 μM
# Outline: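 Kinase reaction with biotinylated peptide substrate was started by ATP addition and run 120 min at room temperature, then quenched with EDTA stop buffer containing streptavidin-Dylight 650 and Eu-pY20 antibody. HTRF read 60 min later (665/615 nm ratio); percent inhibition vs log concentration fit to 4-parameter curve for IC50.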
# [2] = biological target: JAK2 (recombinant purified GST-tagged catalytic domain) (Homo sapiens (Human), UniProt O60674); assay: Jak Biochemical HTRF Assay (JAK2); settings: [ATP] 8.5 μM
# Sequence of JAK2 (recombinant purified GST-tagged catalytic domain) (O60674 849-1124): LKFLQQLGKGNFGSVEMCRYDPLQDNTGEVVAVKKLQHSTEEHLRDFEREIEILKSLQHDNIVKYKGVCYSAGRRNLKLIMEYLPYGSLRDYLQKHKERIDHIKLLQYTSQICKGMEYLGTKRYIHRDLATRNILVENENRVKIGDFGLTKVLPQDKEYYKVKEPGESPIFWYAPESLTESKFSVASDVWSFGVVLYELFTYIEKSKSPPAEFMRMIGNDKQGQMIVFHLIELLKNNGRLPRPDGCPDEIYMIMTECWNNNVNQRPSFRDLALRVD
# Sequence of JAK1 (recombinant purified GST-tagged catalytic domain) (P23458 875-1153): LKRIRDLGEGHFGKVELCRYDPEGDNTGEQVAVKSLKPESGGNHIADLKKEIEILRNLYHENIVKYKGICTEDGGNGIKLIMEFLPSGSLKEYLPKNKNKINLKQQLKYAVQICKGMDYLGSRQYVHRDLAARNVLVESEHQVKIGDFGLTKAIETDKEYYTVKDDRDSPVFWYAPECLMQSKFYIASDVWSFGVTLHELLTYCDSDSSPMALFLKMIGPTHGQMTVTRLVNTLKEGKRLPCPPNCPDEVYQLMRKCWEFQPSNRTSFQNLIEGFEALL
SMILES,IC50 [1] [nM],IC50 [2] [nM]
"COC1CN([C@H]2CC[C@@](CC#N)(n3nc(Nc4ccc(Cl)c(F)c4)c4c(=O)[nH]ccc43)CC2)C1 [Example 18-23, Cis 2-(1-(3-((4-chloro-3-fluorophenyl)amino)-4-oxo-4,5-dihydro-1H-pyrazolo[4,3-c]pyridin-1-yl)-4-(3-methoxyazetidin-1-yl)cyclohexyl)acetonitrile]",125,> 1500
"COC1CN([C@H]2CC[C@](CC#N)(n3nc(Nc4ccc(Cl)c(F)c4)c4c(=O)[nH]ccc43)CC2)C1 [Example 18-24, Trans 2-(1-(3-((4-chloro-3-fluorophenyl)amino)-4-oxo-4,5-dihydro-1H-pyrazolo[4,3-c]pyridin-1-yl)-4-(3-methoxyazetidin-1-yl)cyclohexyl)acetonitrile]",0.09,5.87
"N#CC[C@]1(n2nc(Nc3ccc(Cl)c(F)c3)c3c(=O)[nH]ccc32)CC[C@@H](Nc2ccccc2)CC1 [Example 18-25, Cis 2-(1-(3-((4-chloro-3-fluorophenyl)amino)-4-oxo-4,5-dihydro-1H-pyrazolo[4,3-c]pyridin-1-yl)-4-(phenylamino)cyclohexyl)acetonitrile]",70.2,> 1500
"N#CC[C@]1(n2nc(Nc3ccc(Cl)c(F)c3)c3c(=O)[nH]ccc32)CC[C@H](Nc2ccccc2)CC1 [Example 18-26, Trans 2-(1-(3-((4-chloro-3-fluorophenyl)amino)-4-oxo-4,5-dihydro-1H-pyrazolo[4,3-c]pyridin-1-yl)-4-(phenylamino)cyclohexyl)acetonitrile]",2.48,54.7
"N#CC[C@]1(n2nc(Nc3ccc(S(=O)(=O)C(F)F)cc3)c3c(=O)[nH]ccc32)CC[C@@H](N2CC(F)C2)CC1 [Example 18-27, Cis 2-(1-(3-((4-((difluoromethyl)sulfonyl)phenyl)amino)-4-oxo-4,5-dihydro-1H-pyrazolo[4,3-c]pyridin-1-yl)-4-(3-fluoroazetidin-1-yl)cyclohexyl)acetonitrile]",2.23,9.07
"N#CC[C@]1(n2nc(Nc3ccc(S(=O)(=O)C(F)F)cc3)c3c(=O)[nH]ccc32)CC[C@H](N2CC(F)C2)CC1 [Example 18-28, Trans 2-(1-(3-((4-((difluoromethyl)sulfonyl)phenyl)amino)-4-oxo-4,5-dihydro-1H-pyrazolo[4,3-c]pyridin-1-yl)-4-(3-fluoroazetidin-1-yl)cyclohexyl)acetonitrile]",0.05,0.11
CN1Cc2cc(Nc3nn([C@]4(CC#N)CC[C@H](N5CC(F)C5)CC4)c4cc[nH]c(=O)c34)ccc2S1(=O)=O [Example 18-31],1.81,16.9
CN1Cc2cc(Nc3nn([C@]4(CC#N)CC[C@@H](N5CC(F)C5)CC4)c4cc[nH]c(=O)c34)ccc2S1(=O)=O [Example 18-32],0.04,0.09
"CN1Cc2cc(Nc3nn([C@]4(CC#N)CC[C@@H](N(C)C)CC4)c4cc[nH]c(=O)c34)ccc2S1(=O)=O [Example 18-34, Trans 2-(4-(Dimethylamino)-1-(3-((2-methyl-1,1-dioxido-2,3-dihydrobenzo-[d]isothiazol-6-yl)amino)-4-oxo-4,5-dihydro-1H-pyrazolo[4,3-c]pyridin-1-yl)cyclohexyl)acetonitrile]",1.07,12.1
CC(C)(C)N1Cc2cc(Nc3nn([C@]4(CC#N)CC[C@@H](N5CC(F)C5)CC4)c4cc[nH]c(=O)c34)ccc2S1(=O)=O [Example 18-35],0.21,0.21
CC(C)(C)N1Cc2cc(Nc3nn([C@]4(CC#N)CC[C@H](N5CC(F)C5)CC4)c4cc[nH]c(=O)c34)ccc2S1(=O)=O [Example 18-36],0.83,6.85
"CN(C)[C@H]1CC[C@](CC#N)(n2nc(Nc3ccc4c(c3)CN(C(C)(C)C)S4(=O)=O)c3c(=O)[nH]ccc32)CC1 [Example 18-37, Trans 2-(1-(3-((2-(tert-butyl)-1,1-dioxido-2,3-dihydrobenzo[d]isothiazol-5-yl)amino)-4-oxo-4,5-dihydro-1H-pyrazolo[4,3-c]pyridin-1-yl)-4-(dimethylamino)cyclohexyl)acetonitrile]",0.23,4.43
"CN(C)[C@H]1CC[C@@](CC#N)(n2nc(Nc3ccc4c(c3)CN(C(C)(C)C)S4(=O)=O)c3c(=O)[nH]ccc32)CC1 [Example 18-38, Cis 2-(1-(3-((2-(tert-butyl)-1,1-dioxido-2,3-dihydrobenzo[d]isothiazol-5-yl)amino)-4-oxo-4,5-dihydro-1H-pyrazolo[4,3-c]pyridin-1-yl)-4-(dimethylamino)cyclohexyl)acetonitrile]",16.1,211
"CN(C)S(=O)(=O)c1ccc(Nc2nn(C3(CC#N)CCC(=O)CC3)c3cc[nH]c(=O)c23)cc1 [Example 18-39, 4-((1-(1-(cyanomethyl)-4-oxocyclohexyl)-4-oxo-4,5-dihydro-1H-pyrazolo[4,3-c]pyridin-3-yl)amino)-N,N-dimethylbenzenesulfonamide]",1.37,1.78
"CC(C)(C)NC(=O)[C@@H]1CC[C@@](CC#N)(n2nc(Nc3ccc4c(c3)CN(C(C)(C)C)S4(=O)=O)c3c(=O)[nH]ccc32)CO1 [Example 19-1, (2S,5S)-N-(tert-butyl)-5-(3-((2-(tert-butyl)-1,1-dioxido-2,3-dihydrobenzo[d]isothiazol-5-yl)amino)-4-oxo-4,5-dihydro-1H-pyrazolo[4,3-c]pyridin-1-yl)-5-(cyanomethyl)tetrahydro-2H-pyran-2-carboxamide]",0.08,1.94
"CN(C(=O)[C@@H]1CC[C@@](CC#N)(n2nc(Nc3ccc4c(c3)CN(C(C)(C)C)S4(=O)=O)c3c(=O)[nH]ccc32)CO1)C(C)(C)C [Example 19-2, (2S,5S)-N-tert-butyl-5-{3-[(2-tert-butyl-1,1-dioxido-2,3-dihydro-1,2-benzisothiazol-5-yl)amino]-4-oxo-4,5-dihydro-1H-pyrazolo[4,3-c]pyridin-1-yl}-5-(cyanomethyl)-N-methyltetrahydro-2H-pyran-2-carboxamide]",0.1,2.07
"CC(C)OC(=O)[C@@H]1CC[C@@](CC#N)(n2nc(Nc3ccc4c(c3)CN(C(C)(C)C)S4(=O)=O)c3c(=O)[nH]ccc32)CO1 [Example 19-3, (2S,5S)-isopropyl 5-(3-((2-(tert-butyl)-1,1-dioxido-2,3-dihydrobenzo[d]isothiazol-5-yl)amino)-4-oxo-4,5-dihydro-1H-pyrazolo[4,3-c]pyridin-1-yl)-5-(cyanomethyl)tetrahydro-2H-pyran-2-carboxylate]",0.04,0.06
"Cc1cc(Nc2nn([C@]3(CC#N)CCCOC3)c3cc[nH]c(=O)c23)ccc1C(=O)N1CCCC[C@@H]1C [Example 20-2, 2-((S)-3-(3-((3-methyl-4-((S)-2-methylpiperidine-1-carbonyl)phenyl)amino)-4-oxo-4,5-dihydro-1H-pyrazolo[4,3-c]pyridin-1-yl)tetrahydro-2H-pyran-3-yl)acetonitrile]",0.43,0.62
"Cc1cc(Nc2nn([C@]3(CC#N)CCCOC3)c3cc[nH]c(=O)c23)ccc1C(=O)N1CCCC[C@H]1C [Example 20-3, 2-((S)-3-(3-((3-methyl-4-((R)-2-methylpiperidine-1-carbonyl)phenyl)amino)-4-oxo-4,5-dihydro-1H-pyrazolo[4,3-c]pyridin-1-yl)tetrahydro-2H-pyran-3-yl)acetonitrile]",0.65,0.83
"Cc1cc(Nc2nn([C@]3(CC#N)CCCOC3)c3cc[nH]c(=O)c23)ccc1C(=O)N1CCC(C)(O)CC1 [Example 20-4, (S)-2-(3-(3-((4-(4-hydroxy-4-methylpiperidine-1-carbonyl)-3-methylphenyl)amino)-4-oxo-4,5-dihydro-1H-pyrazolo[4,3-c]pyridin-1-yl)tetrahydro-2H-pyran-3-yl)acetonitrile]",0.35,0.88
"Cc1cc(Nc2nn([C@]3(CC#N)CC[C@@H](C(=O)OC(C)(C)C)OC3)c3cc[nH]c(=O)c23)ccc1C(=O)N1CCOCC1 [Example 20-5, (2S,5S)-tert-butyl 5-(cyanomethyl)-5-(3-((3-methyl-4-(morpholine-4-carbonyl)phenyl)amino)-4-oxo-4,5-dihydro-1H-pyrazolo[4,3-c]pyridin-1-yl)tetrahydro-2H-pyran-2-carboxylate]",0.13,0.19
"Cc1cc(Nc2nn([C@]3(CC#N)CC[C@@H](C(=O)OC(C)(C)C)OC3)c3cc[nH]c(=O)c23)ccc1C(=O)N1CCCC1 [Example 20-7, (2S,5S)-tert-butyl 5-(cyanomethyl)-5-(3-((3-methyl-4-(pyrrolidine-1-carbonyl)phenyl)amino)-4-oxo-4,5-dihydro-1H-pyrazolo[4,3-c]pyridin-1-yl)tetrahydro-2H-pyran-2-carboxylate]",0.09,0.36
"CCN(CC(F)(F)F)C(=O)c1ccc(Nc2nn([C@]3(CC#N)CC[C@@H](C(=O)OC(C)(C)C)OC3)c3cc[nH]c(=O)c23)cc1C [Example 20-14, (2S,5S)-tert-butyl 5-(cyanomethyl)-5-(3-((4-(ethyl(2,2,2-trifluoroethyl)carbamoyl)-3-methylphenyl)amino)-4-oxo-4,5-dihydro-1H-pyrazolo[4,3-c]pyridin-1-yl)tetrahydro-2H-pyran-2-carboxylate]",0.28,0.51
"Cc1cc(Nc2nn([C@]3(CC#N)CC[C@@H](C(=O)OC(C)(C)C)OC3)c3cc[nH]c(=O)c23)ccc1C(=O)N(C)CC(F)(F)F [Example 20-15, (2S,5S)-tert-butyl 5-(cyanomethyl)-5-(3-((3-methyl-4-(methyl(2,2,2-trifluoroethyl)carbamoyl)phenyl)amino)-4-oxo-4,5-dihydro-1H-pyrazolo[4,3-c]pyridin-1-yl)tetrahydro-2H-pyran-2-carboxylate]",0.19,0.51
